{"source": "patent US20190046490A1", "about": "“METHODS OF TREATING LACTOSE INTOLERANCE” (Nogra Pharma Limited, priority 2016, published 2019)", "key": {"[1]": {"test_system": "LCT gene", "assay": "Transcriptome microarray analysis of LCT mRNA expression in Caco-2 cells treated with PPARγ modulators", "assay_type": "cell-based, human", "conditions": "vs unstimulated cells", "description": "Caco-2 (colonic adenocarcinoma) cells were grown in Dulbecco's Modified Eagle's Medium (DMEM, Invitrogen, Life Technologies, Cergy-Pontoise, France) supplemented with 20% foetal calf serum (FCS, Dutscher, Brumath, France), 1% penicillin-streptomycin (5 ml/l) (Invitrogen, Life technologies) and 1% non-essential amino acids (5 ml/l) (Invitrogen, Life technologies). All cell lines were cultured as confluent monolayers at 37° C. in a controlled, 5% CO2 atmosphere.\nFor cell stimulations, 1×10^6 cells per well were seeded in 6-well plates. Cells were serum deprived for 16 hours prior to stimulation in order to synchronize the cells. Cells were treated with GED (Nogra Pharma Ltd, Ireland), pioglitazone (1 μM, Sigma-Aldrich) or CLA (various concentrations, Sigma-Aldrich). When necessary, the DMSO vehicle (Sigma-Aldrich) was used as control. After 24 hours of stimulation, cells were washed three times with sterile PBS before RNA extraction. Cell stimulations were performed in 4 replicates for microarray analysis and in 3, 4 or 6 replicates for other stimulations.\nCells were lysed with lysis buffer (RA1, Macherey-Nagel) containing 1% β-mercaptoethanol. Total RNA was extracted with a Nucleospin RNA kit (Macherey-Nagel, Hoerdt, France). After RNAse inactivation, total RNA was cleaned of genomic DNA traces by DNAse treatment and eluted in RNAse-free, DEPC-water. The purity of the RNA was evaluated by UV spectroscopy on a Nanodrop system (Nyxor Biotech, Paris, France) from 220 to 350 nm. Before microarray experiments, RNAs were also profiled on an Agilent 2100 bioanalyzer. One μg of total RNA with a minimum concentration of 50 ng/μl was used in the microarray and qRT-PCR analysis.\nDual-colour gene expression microarrays were used to compare the cRNA from the samples. 44,000 genes were screened. The RNAs from the samples were first reverse-transcribed into cDNA (Affinity-Script RT, Agilent), which were then used as the substrate for the synthesis and amplification of cRNA by T7 RNA polymerase in the presence of cyanine 3-CTP for the CTL sample (green fluorescence) and cyanine 5-CTP for the PPAR-γ y modulator sample (red fluorescence). The two-labelled cRNAs were mixed, hybridized on the same array (G4851A Agilent 8×44K) and then scanned (with an Agilent G2505B scanner). Fluorescence was visualized after laser excitation and the relative intensities of the two fluorophores were expressed as a ratio, in order to yield the over- or under-expression status of each gene (using GeneSpring software (Agilent)). This analysis was performed for each PPAR-γ modulator."}, "[2]": {"test_system": "LCT activity", "assay": "Lactase activity in Caco-2 cells (glucose oxidase method)", "assay_type": "cell-based, human", "conditions": "Caco-2 cells, 30 mM", "description": "(§1) Lactase activity was evaluated by using a glucose oxidase method (Glucose Assay Kit, Sigma). This lactase assay is based on the measurement of the amount of glucose produced following the action of lactase by incubating samples with a lactose buffer solution (0.056 mol/l lactose in a 0.1 mol/l Na-maleate buffer). For Caco-2 cells, lactase activity was determined directly from the cell monolayer. After extensive washing, the cell monolayer was incubated with lactose buffer for one hour at 37° C. The supernatant was recovered, 50 μl were diluted with 100 μl of glucose oxidase reagent and incubated at 37° C. for 1 hour. The reaction was stopped with 100 μl of H2SO4 and read by spectrophotometry at 450 nm. When lactase activity was determined from intestinal sample, tissue samples were first dounce-homogenized in 0.9% NaCl on crushed ice. These homogenates were then diluted in 0.9% NaCl ( 1/500) and 50 μl of dilution were incubated with lactose buffer and used to determine lactase activity. For each experiment, the background attributed to the remaining glucose in the samples was measured by incubating cells or cell extracts in lactose-free buffer."}, "[3]": {"test_system": "lactase", "assay": "Lactase expression and activity in short term cultures of human duodenal biopsies", "assay_type": "cell-based", "conditions": "exposure for 6 hours"}, "[4]": {"test_system": "LCT", "assay": "LCT mRNA and LCT activity in duodenum and jejunum of rats after 5 days oral gavage", "assay_type": "in vivo, Sprague Dawley rats", "description": "Expression of genes of interest was quantified by quantitative PCR (qPCR) of corresponding reverse transcribed mRNA. One μg of total RNA was reverse-transcribed into cDNA using the High Capacity cDNA Archive kit (Applied Biosystems). Amplification was performed using an ABI PRISM 7000 sequence detection system (Applied Biosystem) using Power SYBR® Green PCR master Mix (Applied Biosystem). Primer pairs for each human transcript were chosen with qPrimer depot software (at primerdepot.nci.nih.gov.). Quantification of qPCR signals was performed using ΔCt relative quantification method using GAPDH as a reference gene for human and rat samples and β-Actin for mouse samples. Values were represented in terms of relative quantity of mRNA level variation or fold increase compared to control conditions.\nas §1\nTo determine whether CLA induces LCT expression and activity in vivo, Sprague Dawley rats were fed a control diet and administered either carboxymethyl cellulose (CMC; 0.5%), CLA, or GED for 5 days, after which levels of PPARγ mRNA, LCT mRNA, and LCT activity were measured. CLA was administered at 200 mg/kg/day by oral gavage, and GED was administered at 30 mg/kg/day by oral gavage (FIG. 21A)."}, "[5]": {"conditions": "oral gavage 5 days, GED 30 mg/kg/day, CLA 200 mg/kg/day"}}, "note": "“And” between values parts separate entries of the source, which are not always exact repeats. Identical values can stand only once. “Also recorded” adds a separate entry of the source.", "data": [{"smiles": "COC(Cc1ccc(N)cc1)C(=O)O", "note": "(stereo not drawn) [GED, 3-(4′-aminophenyl)2-methoxypropionic acid]", "values": [{"measurement": "Fold Lactase RNA", "setting": "[1]; 1 mM", "result": "5.28 fold and 5.29 fold"}, {"measurement": "Fold Lactase RNA", "setting": "[1]; 30 mM", "result": 8.28, "unit": "fold"}, {"measurement": "LCT activity relative to control cells", "setting": "[2]", "result": "significant increase; also recorded: significantly upregulated"}, {"measurement": "lactase expression", "setting": "[3]", "result": "significant increase"}, {"measurement": "lactase activity", "setting": "[3]; data not shown", "result": "significant increase"}, {"measurement": "LCT activity in jejunal tissue compared to CMC control", "setting": "[4]; 30 mg/kg/day oral gavage 5 days", "result": "significant increase"}, {"measurement": "LCT activity in duodenal tissue compared to CMC control", "setting": "[4]; [5]", "result": "significant increase"}, {"measurement": "LCT mRNA expression in duodenal tissue relative to CMC control", "setting": "[4]; [5]", "result": "significant increase"}, {"measurement": "LCT mRNA expression in jejunal tissue relative to CMC control", "setting": "[4]; [5]", "result": "significant increase"}]}]}
